Source: US8273769B2, “Phenoxy acetic acid derivatives” (Merck Serono SA, priority 2009, dated 2012)

Assay: In vivo pharmacokinetic evaluation in rat
Design: species or system Sprague Dawley male rats
Method: In order to study the pharmacokinetic (PK) profile of test compounds in vivo, Sprague Dawley male rats or C57BL/6 female mice were dosed intravenously or after oral gavage. For both species, test compounds were dosed in solution at 1 mg/kg for i.v. route (10% ethanol, 10% N,N-dimethylacetamide, 30% propylene glycol, 50% water, v/v) and in suspension at 5 mg/kg (0.5% carboxymethylcellulose suspension, containing 0.25% Tween 20 in water) for oral gavage. PK profile in rat was obtained from 3 animals per dosing route and mouse PK profile was determined from 3 animals for each time points. The volume of administration was 2 mL/kg for i.v. dosing in both species and either 5 mL/kg (rat) or 10 mL/kg (mouse) for oral gavage. Blood samples (100 μL/time point) were collected at 0.083 (5 min), 0.25, 0.5, 1, 4, 7 and 24 hours post-dose for i.v. dosing, and at 0.5, 1, 4, 7 and 24 h for oral dosing, into heparin-Li+ containing tubes. For rats, all blood samples were collected trough a catheter in the carotid artery (placed in the artery the day before the experiment), under light isoflurane anesthesia, and stored on ice until centrifugation and plasma isolation. […] For bioanalysis, samples were processed by protein precipitation (acetonitrile, formic acid 0.1%, addition of 3 volumes) after addition of one internal standard and analysed using a sensitive and selective LC/MS/MS method. An aliquot of the resulting supernatant was subject to LC/MS/MS analysis using a reverse phase column (Waters Xterra, C8, (3.5 μm particle size, 2.1×50 mm) and a short gradient (1 min) from (Solvent A) 85% water, 15% acetonitrile and 0.1% formic acid to (Solvent B) 90% acetonitrile, 10% water and 0.1% formic acid followed by isocratic conditions of Solvent B for 3.5 min at 0.4 mL/min. Column effluent was monitored using a Sciex API 4000 triple quadrupole mass spectrometer with a Turbo V electrospray ion source. Unknown concentrations of test compounds were determined using a calibration curve ranging from 1 to 3000 ng/mL.

CCCS(=O)(=O)c1cccc(C#Cc2cc(Cl)ccc2OCC(=O)O)c1 [Example 17, (4-chloro-2-{[3-(propylsulfonyl)phenyl]ethynyl}phenoxy)acetic acid]
Oral bioavailability: 28%
Clearance iv (1 mg/Kg) (i.v. 1 mg/Kg): 6.7 mL/min/kg
AUC (male, Sprague Dawley, plasma, oral gavage 5 mg/Kg): 3700 ng·h/mL
